Assay results: ChEMBL document CHEMBL4387741, “Optimization of novel reversible Bruton's tyrosine kinase inhibitors identified using Tethering-fragment-based screens” (Bioorg Med Chem, 2019)

Columns and labels:
[1] = Plasma clearance in Sprague-Dawley rat at 1 mg/kg, iv relative to hepatic blood flow; assay type: ADME, organism-based; settings: in vivo
[2] = target: Atypical kinase COQ8A, mitochondrial (Homo sapiens) (UniProt Q8NI60); assay: Inhibition of wild-type human […] ADCK3 (M280 to Q647 residues) expressed in bacterial expression system at 1 uM by Kinomescan method relative to control
[3] = target: Bone morphogenetic protein receptor type-1B (Homo sapiens) (UniProt O00238); assay: Inhibition of wild-type human partial length BMPR1B (D178 to L502 residues) expressed in mammalian expression system at 1 uM by Kinomescan method relative to control
[4] = target: Bone morphogenetic protein receptor type-2 (Homo sapiens) (UniProt Q13873); assay: Inhibition of wild-type human partial length BMPR2 (R179 to Q526 residues) expressed in mammalian expression system at 1 uM by Kinomescan method relative to control
Chain of Bone morphogenetic protein receptor type-2 (Homo sapiens) (Q13873 whole entry, the tested form may be a part): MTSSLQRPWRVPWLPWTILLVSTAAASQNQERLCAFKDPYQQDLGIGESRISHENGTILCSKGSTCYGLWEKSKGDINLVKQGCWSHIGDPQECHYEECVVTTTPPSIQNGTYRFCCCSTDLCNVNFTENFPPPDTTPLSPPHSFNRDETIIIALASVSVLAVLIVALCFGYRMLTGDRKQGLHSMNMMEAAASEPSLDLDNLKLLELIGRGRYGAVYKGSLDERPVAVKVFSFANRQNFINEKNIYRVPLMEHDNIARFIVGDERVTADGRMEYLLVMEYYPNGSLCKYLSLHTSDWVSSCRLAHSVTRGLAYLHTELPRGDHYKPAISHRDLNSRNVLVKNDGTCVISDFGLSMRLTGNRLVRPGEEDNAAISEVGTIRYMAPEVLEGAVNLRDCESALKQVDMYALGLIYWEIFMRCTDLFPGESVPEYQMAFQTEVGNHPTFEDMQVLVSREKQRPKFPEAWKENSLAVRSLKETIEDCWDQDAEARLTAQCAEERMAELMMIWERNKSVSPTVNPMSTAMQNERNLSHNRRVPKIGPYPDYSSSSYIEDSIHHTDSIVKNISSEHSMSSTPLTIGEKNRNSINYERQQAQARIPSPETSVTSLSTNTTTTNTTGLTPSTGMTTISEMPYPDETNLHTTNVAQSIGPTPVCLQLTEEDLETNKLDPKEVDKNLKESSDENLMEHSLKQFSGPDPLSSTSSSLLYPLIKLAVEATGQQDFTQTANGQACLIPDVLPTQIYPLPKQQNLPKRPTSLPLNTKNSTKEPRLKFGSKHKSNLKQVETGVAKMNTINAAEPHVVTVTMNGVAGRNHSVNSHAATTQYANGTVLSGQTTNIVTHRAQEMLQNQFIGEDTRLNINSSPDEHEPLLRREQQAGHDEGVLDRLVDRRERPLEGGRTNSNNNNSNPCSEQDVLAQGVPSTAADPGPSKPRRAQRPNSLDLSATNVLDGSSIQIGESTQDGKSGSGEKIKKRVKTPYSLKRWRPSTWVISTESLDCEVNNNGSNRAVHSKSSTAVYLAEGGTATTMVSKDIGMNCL

[5] = target: Serine/threonine-protein kinase Chk1 (Homo sapiens) (UniProt O14757); assay: Inhibition of wild-type human partial length CHEK1 (M1 to G289 residues) expressed in bacterial expression system at 1 uM by Kinomescan method relative to control
[6] = target: Dual specificity protein kinase CLK3 (Homo sapiens) (UniProt P49761); assay: Inhibition of wild-type human full length CLK3 (M1 to R490 residues) expressed in bacterial expression system at 1 uM by Kinomescan method relative to control
[7] = test system: Epidermal growth factor receptor (Homo sapiens), P00533 [L858R]; assay: Inhibition of human partial length EGFR L858R mutant (R669 to V1011 residues) expressed in bacterial expression system at 1 uM by Kinomescan method relative to control
[8] = target: Inhibitor of nuclear factor kappa-B kinase subunit beta (Homo sapiens) (UniProt O14920); assay: Inhibition of wild-type human full length IKK-beta (M1 to S756 residues) expressed in mammalian expression system at 1 uM by Kinomescan method relative to control
[9] = target: Tyrosine-protein kinase JAK2 (Homo sapiens) (UniProt O60674); assay: Inhibition of wild-type human partial length JAK2 JH1 catalytic domain (A829 to G1132 residues) expressed in mammalian expression system at 1 uM by Kinomescan method relative to control
Chain of Tyrosine-protein kinase JAK2 (Homo sapiens) (O60674 whole entry, the tested form may be a part): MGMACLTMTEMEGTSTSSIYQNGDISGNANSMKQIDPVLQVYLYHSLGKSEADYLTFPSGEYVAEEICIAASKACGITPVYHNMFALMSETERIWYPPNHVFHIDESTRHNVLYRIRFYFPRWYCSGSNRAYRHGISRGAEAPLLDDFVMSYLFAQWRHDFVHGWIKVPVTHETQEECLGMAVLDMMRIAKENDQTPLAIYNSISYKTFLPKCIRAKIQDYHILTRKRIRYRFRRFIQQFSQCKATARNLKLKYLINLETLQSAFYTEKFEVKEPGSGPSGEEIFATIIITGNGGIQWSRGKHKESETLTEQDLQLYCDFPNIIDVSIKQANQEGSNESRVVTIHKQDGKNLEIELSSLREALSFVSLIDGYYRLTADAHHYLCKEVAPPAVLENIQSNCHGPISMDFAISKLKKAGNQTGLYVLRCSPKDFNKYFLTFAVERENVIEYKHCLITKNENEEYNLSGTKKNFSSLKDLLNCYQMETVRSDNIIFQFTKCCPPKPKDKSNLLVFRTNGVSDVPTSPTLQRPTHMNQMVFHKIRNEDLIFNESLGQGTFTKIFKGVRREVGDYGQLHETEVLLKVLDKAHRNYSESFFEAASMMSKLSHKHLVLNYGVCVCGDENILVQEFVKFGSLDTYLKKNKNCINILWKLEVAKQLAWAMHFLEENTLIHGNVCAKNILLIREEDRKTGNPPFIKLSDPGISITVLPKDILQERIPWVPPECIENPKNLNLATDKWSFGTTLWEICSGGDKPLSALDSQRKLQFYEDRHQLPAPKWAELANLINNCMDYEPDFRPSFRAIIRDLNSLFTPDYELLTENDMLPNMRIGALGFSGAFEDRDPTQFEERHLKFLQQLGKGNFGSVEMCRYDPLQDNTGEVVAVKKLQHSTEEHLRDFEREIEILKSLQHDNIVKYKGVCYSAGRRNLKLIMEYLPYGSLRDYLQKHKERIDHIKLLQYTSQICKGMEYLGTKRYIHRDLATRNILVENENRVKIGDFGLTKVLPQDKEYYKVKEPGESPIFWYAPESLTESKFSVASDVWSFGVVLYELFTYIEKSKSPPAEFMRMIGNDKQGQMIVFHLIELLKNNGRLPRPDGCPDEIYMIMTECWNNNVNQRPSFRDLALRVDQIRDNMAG

[10] = target: Misshapen-like kinase 1 (Homo sapiens) (UniProt Q8N4C8); assay: Inhibition of wild-type human partial length MINK (M1 to K312 residues) expressed in mammalian expression system at 1 uM by Kinomescan method relative to control
Chain of Misshapen-like kinase 1 (Homo sapiens) (Q8N4C8 whole entry, looked up, the tested form may be a part, canonical isoform): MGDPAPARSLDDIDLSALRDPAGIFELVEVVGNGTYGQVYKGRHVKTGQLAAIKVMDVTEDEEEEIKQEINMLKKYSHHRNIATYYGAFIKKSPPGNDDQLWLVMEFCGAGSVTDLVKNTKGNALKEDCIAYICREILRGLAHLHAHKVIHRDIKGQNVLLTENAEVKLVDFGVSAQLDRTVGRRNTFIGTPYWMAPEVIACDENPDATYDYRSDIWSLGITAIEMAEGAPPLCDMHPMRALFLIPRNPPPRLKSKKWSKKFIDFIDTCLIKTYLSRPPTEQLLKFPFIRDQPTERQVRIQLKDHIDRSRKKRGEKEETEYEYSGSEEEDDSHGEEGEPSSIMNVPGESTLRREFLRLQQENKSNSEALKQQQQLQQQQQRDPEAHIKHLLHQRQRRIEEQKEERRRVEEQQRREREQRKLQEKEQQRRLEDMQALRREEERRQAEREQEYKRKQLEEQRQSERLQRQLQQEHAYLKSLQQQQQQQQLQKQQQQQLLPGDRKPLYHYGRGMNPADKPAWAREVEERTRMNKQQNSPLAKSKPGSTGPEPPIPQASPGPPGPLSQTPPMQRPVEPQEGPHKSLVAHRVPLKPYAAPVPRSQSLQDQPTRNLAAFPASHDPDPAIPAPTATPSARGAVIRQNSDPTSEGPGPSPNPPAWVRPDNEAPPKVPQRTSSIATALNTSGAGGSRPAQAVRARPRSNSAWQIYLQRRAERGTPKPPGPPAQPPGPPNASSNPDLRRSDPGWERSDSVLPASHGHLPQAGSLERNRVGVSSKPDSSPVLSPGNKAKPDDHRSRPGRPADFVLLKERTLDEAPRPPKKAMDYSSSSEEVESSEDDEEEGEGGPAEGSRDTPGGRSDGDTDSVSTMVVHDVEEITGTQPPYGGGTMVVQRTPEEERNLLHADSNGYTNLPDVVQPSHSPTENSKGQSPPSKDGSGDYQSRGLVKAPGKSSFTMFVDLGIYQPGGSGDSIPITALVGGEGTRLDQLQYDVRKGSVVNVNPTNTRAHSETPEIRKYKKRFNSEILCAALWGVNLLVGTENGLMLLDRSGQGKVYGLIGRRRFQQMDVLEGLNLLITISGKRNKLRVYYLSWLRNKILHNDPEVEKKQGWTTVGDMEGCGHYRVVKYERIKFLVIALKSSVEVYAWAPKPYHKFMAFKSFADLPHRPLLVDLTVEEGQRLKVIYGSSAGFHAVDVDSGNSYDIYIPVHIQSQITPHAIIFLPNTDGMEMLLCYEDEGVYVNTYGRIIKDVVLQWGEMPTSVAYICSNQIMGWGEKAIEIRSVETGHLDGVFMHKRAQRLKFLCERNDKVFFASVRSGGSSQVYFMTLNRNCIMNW

[11] = test system: Phosphatidylinositol 4,5-bisphosphate 3-kinase catalytic subunit alpha isoform (Homo sapiens), P42336 [M1043I]; assay: Inhibition of human partial length PIK3CA M1043I mutant (R108 to N1068 residues) expressed in mammalian expression system at 1 uM by Kinomescan method relative to control
[12] = Terminal half-life in Sprague-Dawley rat at 1 mg/kg, iv; assay type: ADME, organism-based; settings: in vivo, read-out: beta t1/2 (converted)
[13] = target: ALK tyrosine kinase receptor (Homo sapiens) (UniProt Q9UM73); assay: Inhibition of wild-type human partial length ALK (I1088 to E1409 residues) expressed in mammalian expression system at 10 uM by Kinomescan method relative to control
[14] = target: Protein-tyrosine kinase 6 (Homo sapiens) (UniProt Q13882); assay: Inhibition of wild-type human partial length BRK (L166 to T451 residues) expressed in bacterial expression system at 10 uM by Kinomescan method relative to control
[15] = target: Casein kinase I isoform gamma-3 (Homo sapiens) (UniProt Q9Y6M4); assay: Inhibition of wild-type human full length CSNK1G3 (M1 to K447 residues) expressed in bacterial expression system at 10 uM by Kinomescan method relative to control
[16] = target: Serine/threonine-protein kinase 17B (Homo sapiens) (UniProt O94768); assay: Inhibition of wild-type human full length DRAK2 (M1 to C372 residues) expressed in bacterial expression system at 10 uM by Kinomescan method relative to control
Chain of Serine/threonine-protein kinase 17B (Homo sapiens) (O94768 whole entry, the tested form may be a part): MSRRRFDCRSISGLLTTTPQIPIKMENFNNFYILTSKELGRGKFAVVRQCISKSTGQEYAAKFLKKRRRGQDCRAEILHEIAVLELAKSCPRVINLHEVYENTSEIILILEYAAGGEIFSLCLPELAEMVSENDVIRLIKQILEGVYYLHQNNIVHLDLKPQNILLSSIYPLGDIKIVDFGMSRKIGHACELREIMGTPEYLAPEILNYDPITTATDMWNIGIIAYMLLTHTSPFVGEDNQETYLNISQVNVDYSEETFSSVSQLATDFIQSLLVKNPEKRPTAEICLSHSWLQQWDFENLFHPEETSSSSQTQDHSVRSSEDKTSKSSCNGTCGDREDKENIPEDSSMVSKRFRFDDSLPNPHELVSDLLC

[17] = target: Ephrin type-B receptor 3 (Homo sapiens) (UniProt P54753); assay: Inhibition of wild-type human partial length EPHB3 (Q599 to T928 residues) expressed in bacterial expression system at 10 uM by Kinomescan method relative to control
[18] = target: Tyrosine-protein kinase Fer (Homo sapiens) (UniProt P16591); assay: Inhibition of wild-type human partial length FER (S542 to T822 residues) expressed in bacterial expression system at 10 uM by Kinomescan method relative to control
[19] = target: Maternal embryonic leucine zipper kinase (Homo sapiens) (UniProt Q14680); assay: Inhibition of wild-type human full length MELK (M1 to V651 residues) expressed in bacterial expression system at 10 uM by Kinomescan method relative to control
[20] = target: Hepatocyte growth factor receptor (Homo sapiens) (UniProt P08581); assay: Inhibition of wild-type human partial length MET (D1010 to S1367 residues) expressed in bacterial expression system at 10 uM by Kinomescan method relative to control
[21] = target: Myosin light chain kinase, smooth muscle (Homo sapiens) (UniProt Q15746); assay: Inhibition of wild-type human full length MYLK (M854 to E1845 residues) expressed in mammalian expression system at 10 uM by Kinomescan method relative to control
[22] = target: Serine/threonine-protein kinase PAK 4 (Homo sapiens) (UniProt O96013); assay: Inhibition of wild-type human partial length PAK4 (Q144 to R438 residues) expressed in bacterial expression system at 10 uM by Kinomescan method relative to control
Chain of Serine/threonine-protein kinase PAK 4 (Homo sapiens) (O96013 whole entry, looked up, the tested form may be a part, canonical isoform): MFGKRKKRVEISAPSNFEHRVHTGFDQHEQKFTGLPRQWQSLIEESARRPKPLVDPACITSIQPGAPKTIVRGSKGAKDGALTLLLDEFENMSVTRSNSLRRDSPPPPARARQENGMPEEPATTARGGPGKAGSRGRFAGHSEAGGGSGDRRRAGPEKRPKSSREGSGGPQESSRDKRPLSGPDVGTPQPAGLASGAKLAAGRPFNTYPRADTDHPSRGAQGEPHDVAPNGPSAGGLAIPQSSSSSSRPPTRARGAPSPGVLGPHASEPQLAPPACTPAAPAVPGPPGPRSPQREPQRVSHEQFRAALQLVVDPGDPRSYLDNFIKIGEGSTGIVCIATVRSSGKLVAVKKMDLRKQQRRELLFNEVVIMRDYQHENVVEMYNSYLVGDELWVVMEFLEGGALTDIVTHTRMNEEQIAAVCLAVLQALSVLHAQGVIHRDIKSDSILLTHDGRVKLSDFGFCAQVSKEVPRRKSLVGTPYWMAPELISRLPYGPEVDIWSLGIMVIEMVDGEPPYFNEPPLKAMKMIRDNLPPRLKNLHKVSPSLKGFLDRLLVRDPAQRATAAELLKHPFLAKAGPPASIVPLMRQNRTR

[23] = target: Phosphorylase b kinase gamma catalytic chain, skeletal muscle/heart isoform (Homo sapiens) (UniProt Q16816); assay: Inhibition of wild-type human full length PHKG1 (M1 to Y387 residues) expressed in bacterial expression system at 10 uM by Kinomescan method relative to control
[24] = target: Serine/threonine-protein kinase N1 (Homo sapiens) (UniProt Q16512); assay: Inhibition of wild-type human partial length PKN1 (E598 to C948 residues) expressed in bacterial expression system at 10 uM by Kinomescan method relative to control
[25] = target: Interferon-induced, double-stranded RNA-activated protein kinase (Homo sapiens) (UniProt P19525); assay: Inhibition of wild-type human partial length PRKR (F247 to C551 residues) expressed in bacterial expression system at 10 uM by Kinomescan method relative to control
[26] = target: Receptor-interacting serine/threonine-protein kinase 1 (Homo sapiens) (UniProt Q13546); assay: Inhibition of wild-type human partial length RIPK1 (M1 to K305 residues) expressed in bacterial expression system at 10 uM by Kinomescan method relative to control
[27] = target: NUAK family SNF1-like kinase 2 (Homo sapiens) (UniProt Q9H093); assay: Inhibition of wild-type human partial length SNARK (P22 to A333 residues) expressed in mammalian expression system at 10 uM by Kinomescan method relative to control
Chain of NUAK family SNF1-like kinase 2 (Homo sapiens) (Q9H093 whole entry, the tested form may be a part): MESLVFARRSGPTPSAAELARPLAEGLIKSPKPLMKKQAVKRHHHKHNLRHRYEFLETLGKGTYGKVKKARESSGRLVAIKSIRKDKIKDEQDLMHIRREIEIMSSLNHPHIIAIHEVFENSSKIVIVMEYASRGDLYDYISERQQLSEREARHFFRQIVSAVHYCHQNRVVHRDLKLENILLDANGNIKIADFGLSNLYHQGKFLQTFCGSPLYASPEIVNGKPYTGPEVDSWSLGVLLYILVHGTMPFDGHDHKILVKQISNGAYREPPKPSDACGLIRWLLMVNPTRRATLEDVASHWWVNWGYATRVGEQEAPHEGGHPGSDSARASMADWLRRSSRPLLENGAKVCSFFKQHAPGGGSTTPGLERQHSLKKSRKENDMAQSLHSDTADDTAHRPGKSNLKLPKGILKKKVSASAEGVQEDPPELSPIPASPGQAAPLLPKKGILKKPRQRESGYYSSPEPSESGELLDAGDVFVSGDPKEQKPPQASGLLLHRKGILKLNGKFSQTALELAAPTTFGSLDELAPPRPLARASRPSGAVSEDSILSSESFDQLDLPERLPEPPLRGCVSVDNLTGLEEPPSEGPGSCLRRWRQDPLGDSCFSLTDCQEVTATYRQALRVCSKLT

[28] = target: Serine/threonine-protein kinase 32A (Homo sapiens) (UniProt Q8WU08); assay: Inhibition of wild-type human full length YANK1 (M1 to L396 residues) expressed in mammalian expression system at 10 uM by Kinomescan method relative to control

`O=C(Nc1cccc([C@@H]2CN(c3ncnc4[nH]ccc34)CCN2CCO)c1)Nc1c(F)cccc1N1CCCC1` gave a CL [1] of 11%, an inhibition [2] of 100% and an inhibition [3] of 63%. The inhibition [4] was 91%, the inhibition [5] was 99% and the inhibition [6] was 94%. It also gave an inhibition [7] of 99%, an inhibition [8] of 74% and an inhibition [9] of 0%. The inhibition [10] was 69%, the inhibition [11] was 94% and the half-life [12] was 150 min.

With `O=C(Nc1cccc([C@H]2CCCN(c3ncnc4[nH]ccc34)C2)c1)Nc1ccccc1N1CCCC1` the inhibition [13] was 80%, the inhibition [14] was 100% and the inhibition [15] was 99%. It also gave an inhibition [16] of 74%, an inhibition [17] of 100% and an inhibition [18] of 80%. For the same compound, the inhibition [19] was 36%, the inhibition [20] was 86% and the inhibition [21] was 83%. It also gave an inhibition [22] of 54%, an inhibition [23] of 91% and an inhibition [24] of 100%. It also gave an inhibition [25] of 87%, an inhibition [26] of 100% and an inhibition [27] of 6.6%. The inhibition [28] was 98%.
